Test results from patent publication US10363239B2, “Method for inhibiting growth of cancer cells” (Pain Therapeutics, Inc., priority 2013, dated 2019).
Where two headings read alike, the source gives them in different places.

Assays:
[1] = target: FLNA pentapeptide of SEQ ID NO: 1 (Bn-VAKGL) (Homo sapiens, UniProt P21333); assay: FITC-NLX-based FLNA screening assay (inhibition of FITC-naloxone binding to Bn-VAKGL on streptavidin plates); conditions: 10 nM FITC-NLX
mu opiate receptor (MOR) = assay: MOR agonist activity using [35S]GTPγS binding assay in striatal membranes; assay type: biochemical; conditions: for % DAMGO (0.1 μM) / % DAMGO (1 μM): relative to DAMGO; for % DAMGO + BFNA: 1 μM compound + β-FNA, relative to DAMGO + BFNA
Procedure: To assess the mu opiate receptor (MOR) agonist activity of positive compounds from the FLNA screening, compounds were tested in a [^35S]GTPγS binding assay using striatal membranes. […] This assay measures a functional consequence of receptor occupancy at one of the earliest receptor-mediated events. The assay permits traditional pharmacological parameters of potency, efficacy and antagonist affinity, with the advantage that agonist measures are not subjected to amplification or other modulation that may occur when analyzing parameters further downstream of the receptor.
Thus, striatal tissue was homogenized in 10 volumes of ice cold 25 mM HEPES buffer, pH 7.4, which contained 1 mM EGTA, 100 mM sucrose, 50 μg/ml leupeptin, 0.04 mM PMSF, 2 μg/ml soybean trypsin inhibitor and 0.2% 2-mercaptoethanol. The homogenates were centrifuged at 800×g for 5 minutes and the supernatants were centrifuged at 49,000×g for 20 minutes. The resulting pellets were suspended in 10 volume of reaction buffer, which contained 25 mM HEPES, pH 7.5, 100 mM NaCl, 50 μg/ml leupeptin, 2 μg/ml soybean trypsin inhibitor, 0.04 mM PMSF and 0.02% […].
The resultant striatal membrane preparation (200 μg) was admixed and maintained (incubated) at 30° C. for 5 minutes in reaction buffer as above that additionally contained 1 mM MgCl2 and 0.5 nM [^35S]GTPγS (0.1 μCi/assay, PerkinElmer Life and Analytical Sciences) in a total volume of 250 μl and continued for 5 minutes in the absence or presence of 0.1-10 μM of an assayed compound of interest. The reaction was terminated by dilution with 750 μl of ice-cold reaction buffer that contained 20 mM MgCl2 and 1 mM EGTA and immediate centrifugation at 16,000×g for 5 minutes.
The resulting pellet was solubilized by sonicating for 10 seconds in 0.5 ml of immunoprecipitation buffer containing 0.5% digitonin, 0.2% sodium cholate and 0.5% NP-40. Normal rabbit serum (1 μl) was added to 1 ml of lysate and incubated at 25° C. for 30 minutes. Nonspecific immune complexes were removed by incubation with 25 μl of protein A/G-conjugated agarose beads at 25° C. for 30 minutes followed by centrifugation at 5,000×g at 4° C. for 5 minutes. The supernatant was divided and separately incubated at 25° C. for 30 minutes with antibodies raised against Gαo proteins (1:1,000 dilutions).
The immunocomplexes so formed were collected by incubation at 25° C. for 30 minutes with 40 μl of agarose-conjugated protein A/G beads and centrifugation at 5,000×g at 4° C. for 5 minutes. The pellet was washed and suspended in buffer containing 50 mM Tris-HCl, pH 8.0, and 1% NP-40. The radioactivity in the suspension was determined by liquid scintillation spectrometry.

[2] = Series C-1, 0.1 μM compound, [35S]GTPγS binding to Gαo, striatal membranes
[3] = Series C-1, 1 μM compound + 1 μM β-FNA
[4] = Series C-1, 1 μM compound, [35S]GTPγS binding to Gαo, striatal membranes
[5] = read-out: Percent Binding Inhibition, FLNA-binding compound 0.01 μM
[6] = read-out: Percent Binding Inhibition, FLNA-binding compound 0.1 μM
[7] = read-out: Percent Binding Inhibition, FLNA-binding compound 1 μM
[8] = Series B, 0.1 μM compound, [35S]GTPγS binding to Gαo, striatal membranes
[9] = Series B, 1 μM compound + 1 μM β-FNA
[10] = Series B, 1 μM compound, [35S]GTPγS binding to Gαo, striatal membranes

SMILES	% DAMGO (0.1 μM) (mu opiate receptor (MOR); Series C-1, 0.1 μM compound)	Concentration of FLNA-Binding Compound as Agonist 0.1 μM (mu opiate receptor (MOR); [2])	Concentration of FLNA-Binding Compound as Agonist 1 μM + BFNA (mu opiate receptor (MOR); [3])	% DAMGO + BFNA (mu opiate receptor (MOR); Series C-1)	% DAMGO (1 μM) (mu opiate receptor (MOR); Series C-1, 1 μM compound)	Concentration of FLNA-Binding Compound as Agonist 1 μM (mu opiate receptor (MOR); [4])	inhibition at 0.01 µM [1, 5]	inhibition at 0.1 µM [1, 6]	inhibition at 1 µM [1, 7]	% DAMGO (0.1 μM) (mu opiate receptor (MOR); Series B, 0.1 μM compound)	MOR agonist activity, percent [35S]GTPγS binding at the stated compound concentration (mu opiate receptor (MOR); [8])	MOR agonist activity, percent [35S]GTPγS binding at the stated compound concentration (mu opiate receptor (MOR); [9])	% DAMGO + BFNA (mu opiate receptor (MOR); Series B)	% DAMGO (1 μM) (mu opiate receptor (MOR); Series B, 1 μM compound)	MOR agonist activity, percent [35S]GTPγS binding at the stated compound concentration (mu opiate receptor (MOR); [10])	also measured
CC(=O)c1ccc(C(=O)N2CCOC23CCN(S(=O)(=O)c2ccc(C(C)=O)cc2)CC3)cc1 [Compound C0053]	71.7%	104.0%	93.1%	211.6%	67.5%	157.2%										inhibition at 0.01 µM ([1]; FLNA-binding compound 0.01 μM, read-out: Percent Binding Inhibition): 28.9%; inhibition at 0.1 µM ([1]; FLNA-binding compound 0.1 μM, read-out: Percent Binding Inhibition): 33.8%; inhibition at 1 µM ([1]; FLNA-binding compound 1 μM, read-out: Percent Binding Inhibition): 39.3%
COc1c2c(cc3c1C(CC(=O)CCc1ccc(F)cc1)[N+](C)(C)CC3)OCO2 (stereo not drawn) [Compound B0018]							37.2%	43.7%	47.6%	70.3%	118.8%	45.6%	69.1%	53.5%	143.0%	
NS(=O)(=O)c1ccc(S(=O)(=O)N2CCC3(CC2)OCCN3S(=O)(=O)c2ccc(S(N)(=O)=O)cc2)cc1 [Compound C0034]	61.3%	103.6%	80.1%	482.5%	76.7%	167.9%	29.6%	38.3%	44.8%							
COc1c2c(cc3c1C(CC(=O)c1cccc(C(F)(F)F)c1)[N+](C)(C)CC3)OCO2 (stereo not drawn) [Compound B0006]							45.1%	53.5%	61.3%	44.8%	77.0%	18.6%	29.0%	47.5%	131.3%	
O=S(=O)(c1cccs1)N1CCC2(CC1)OCCN2S(=O)(=O)c1cccs1 [Compound C0141M]	109.9%	161.5%	47.9%	121.9%	105.8%	213.9%	33.1%	39%	46.9%							
CS(=O)(=O)c1ccc(S(=O)(=O)N2CCOC23CCNCC3)cc1 [Compound C0116M]							53.9%	60%	62.9%							% DAMGO (0.1 μM) (mu opiate receptor (MOR); Series C-2, 0.1 μM compound): 136.6%; MOR agonist activity, percent [35S]GTPγS binding at the stated compound concentration (mu opiate receptor (MOR); Series C-2, 0.1 μM compound, [35S]GTPγS binding to Gαo, striatal membranes): 258.4%; MOR agonist activity, percent [35S]GTPγS binding at the stated compound concentration (mu opiate receptor (MOR); Series C-2, 1 μM compound + 1 μM β-FNA): 152.0%; % DAMGO + BFNA (mu opiate receptor (MOR); Series C-2): 313.4%; % DAMGO (1 μM) (mu opiate receptor (MOR); Series C-2, 1 μM compound): 122.0%; MOR agonist activity, percent [35S]GTPγS binding at the stated compound concentration (mu opiate receptor (MOR); Series C-2, 1 μM compound, [35S]GTPγS binding to Gαo, striatal membranes): 302.8%
COc1cccc(CCC(=O)CC2c3c(cc4c(c3OC)OCO4)CC[N+]2(C)C)c1 (stereo not drawn) [Compound B0034]							49.1%	54.2%	59.1%	71.6%	122.5%	41.8%	80.2%	88.1%	235.2%	
